Reference: patent publication US7776833B2, “Use of cyclic bioisosters of purine system derivatives for treating diseases produced by disorders of niterergic and dopaminergic systems” (priority 2003, dated 2010)

Each compound was assayed on apomorphine-dependent erection (assay: Apomorphine-dependent erection in low-potency rats). Settings: compound 5 x 10 mg/kg intraperitoneally every 48 hours + apomorphine 0.1 mg/kg subcutaneously; 20 minutes monitoring; one value for the two compounds of the line.
Assay type: in vivo, Wistar rats
Text: One of the mechanisms regulating the sexual function of mammals is associated with functioning of the dopaminergic system of the brain. It is well known that a non-selective D1/D2 agonist apomorphine in low doses causes penile erection in rodents (Giuliano F., Allard J. Dopamine and male sexual function. Eur. Urol., 2001, 40 (6), 601-608; Giuliano F., Allard J., Rampin O. et. al. Pro-erectile effect of systemic apomorphine: existence of a spinal site action. J. Urol., 2002, 167 (1), 402-406; Brien S. E., Smallegange C., Gofton W. T., et. al. Development of a rat model of sexual performance anxiety: effect of behavioral and pharmacological hyperadrenergic stimulation on apomorphine-induced erections. Int. J. Impot. Res., 2002, 14 (2), 107-115.). In this connection, we have studied the effects of the compounds according to the invention on apomorphine-dependent erection in rats.
Nine groups of adult male Wistar rats weighing 350-450 g maintained at the normal (not inverted) light cycle were used in the experiments. To study the effect of the compounds on the sexual function, low-potency animals with a single erection were selected. Control group No. 1 (n=7) was composed of animals not injected with the compounds according to the invention. The animals of groups Nos. 2-9 (n=7) were injected with one of the compounds according to the invention selected from the group of compounds 2, 8, 9, 15, 19, 25, 31, 36, intraperitoneally in a course of 5 injections at a dose of 10 mg/kg with an interval between the injections 48 hours. Apomorphine was dissolved in 0.1% aqueous solution of ascorbic acid and then was injected to all animal subcutaneously at a dose of 0.1 mg/kg during 24-28 hours after the last injection of the compounds according to the invention. The monitoring of sexual activity was made individually for each animal immediately after the administration of apomorphine; the monitoring time was 20 minutes. The following indices were registered: the time of beginning of the first erection, time intervals between the erections, the number of erections for the entire period of observation.
The statistical analysis of the results was made using T-test and ξ-square test. The results are given in Table 3 as means±standard error of means.

SMILES | Latent period of first erection [min] | Number of erection for the entire period of observation | Time between 1st and 2nd erections [min] | Time between 3rd and 2nd erections [min]
O=c1[nH]n([C@@H]2O[C@H](CO)[C@@H](O)[C@H]2O)c(=O)c2ccccc12.[Na] [Compound 9, sodium salt of 2-(β-D-ribofuranosile)benzo[d]-3H-pyridazine-1,4-dione] | 5.09 ± 0.27 | 3.24 ± 0.39 | 3.87 ± 0.59 | 5.19 ± 0.78
O=c1[nH]n([C@@H]2O[C@H](CO)[C@@H](O)[C@H]2O)c(=O)c2nccnc12.[Na] [Compound 19, sodium salt of 7-(β-D-ribofuranosile)pyrazino[2,3-d]-6H-pyridazine-5,8-dione] | 5.24 ± 0.19 | 3.29 ± 0.27 | 3.75 ± 0.64 | 5.12 ± 0.87
Nc1ccnc2c(=O)n([C@@H]3O[C@H](CO)[C@@H](O)[C@H]3O)[nH]c(=O)c12.[Na] [Compound 2, sodium salt of 4-amino-7-(β-D-ribofuranosile)pyrido[2,3-d]-6H-pyridazine-5,8-dione] | 5.21 ± 0.30 | 3.13 ± 0.35 | 3.94 ± 0.60 | 5.52 ± 1.14
O=c1[nH][nH]c(=O)c2ncccc12.[K] [Compound 8, potassium salt of pyrido [2,3-d]-6H-pyridazine-5,8-dione] | 5.21 ± 0.30 | 3.13 ± 0.35 | 3.94 ± 0.60 | 5.52 ± 1.14
Nc1ncc2c(=O)[nH][nH]c(=O)c2n1.[Na] [Compound 36, sodium salt of 2-amino-pyrimido[4,5-d]-6H-pyridazine-5,8-dione] | 5.12 ± 0.24 | 3.32 ± 0.31 | 3.34 ± 0.69 | 5.02 ± 1.01
Nc1cccc2c(=O)[nH][nH]c(=O)c12.[Na] [Compound 15, sodium salt of 5-amino-benzo[d]-3H-pyridazine-1,4-dione] | 5.09 ± 0.27 | 3.24 ± 0.39 | 3.87 ± 0.59 | 5.19 ± 0.78
